Laboratory results from patent publication US20100331297A1, “MODULATION OF PROTEIN TRAFFICKING” (FOLDRX PHARMACEUTICALS, INC., priority 2007, published 2010).

Biological target: ΔF508 CFTR (Homo sapiens, UniProt P13569, DEL508-508)
Test: Corrector activity, YFP halide (iodide) quenching assay in FRT cells expressing ΔF508 CFTR
Type: cell-based
Design: expressed in transfected cells; host or cells: Fischer rat thyroid (FRT) cells
Conditions: FRT cells ΔF508 CFTR/YFP, 24 hours with compound at 37° C., forskolin and genistein; read-out: Corrector EC50
Method: Fisher rat thyroid (FRT) cells stably expressing ΔF508 CFTR and a halide-sensitive variant of yellow fluorescent protein (YFP) were seeded into microtiter plates and allowed to grow for 24 hours at 37° C. and 5% CO2. See Pedemonte et al., J. Clin. Invest. […] Compounds in dimethylsulfoxide (DMSO) solution were pre-diluted into cell culture medium, the medium was removed from cells, and then fresh medium containing the compounds was applied. The cells were incubated for a further 24 hours at 37° C. and 5% CO2.
Activity of CFTR was assayed by removing the medium, washing the cell monolayer with phosphate-buffered saline solution (PBS), and then applying PBS containing forskolin and genistein. After 30 min incubation at 37° C., the plates were placed in a fluorescence plate reader equipped with a reagent injector.
Corrector activity was calculated as follows. Normalized endpoint fluorescence was calculated by dividing the endpoint fluorescence after iodide injection by the initial fluorescence reading and multiplication by 100. Corrector EC50 values were calculated from the activity vs. concentration data using a 4-parameter log fit. The bottom of the curve was constrained to zero activity (DMSO control) while the slope, EC50, and top of the curve were fitted to the data. The EC50 was determined as the concentration that corresponds to the inflection point of the fitted curve.

Sequence of ΔF508 CFTR (P13569 with tags, fused parts or gaps DEL508-508): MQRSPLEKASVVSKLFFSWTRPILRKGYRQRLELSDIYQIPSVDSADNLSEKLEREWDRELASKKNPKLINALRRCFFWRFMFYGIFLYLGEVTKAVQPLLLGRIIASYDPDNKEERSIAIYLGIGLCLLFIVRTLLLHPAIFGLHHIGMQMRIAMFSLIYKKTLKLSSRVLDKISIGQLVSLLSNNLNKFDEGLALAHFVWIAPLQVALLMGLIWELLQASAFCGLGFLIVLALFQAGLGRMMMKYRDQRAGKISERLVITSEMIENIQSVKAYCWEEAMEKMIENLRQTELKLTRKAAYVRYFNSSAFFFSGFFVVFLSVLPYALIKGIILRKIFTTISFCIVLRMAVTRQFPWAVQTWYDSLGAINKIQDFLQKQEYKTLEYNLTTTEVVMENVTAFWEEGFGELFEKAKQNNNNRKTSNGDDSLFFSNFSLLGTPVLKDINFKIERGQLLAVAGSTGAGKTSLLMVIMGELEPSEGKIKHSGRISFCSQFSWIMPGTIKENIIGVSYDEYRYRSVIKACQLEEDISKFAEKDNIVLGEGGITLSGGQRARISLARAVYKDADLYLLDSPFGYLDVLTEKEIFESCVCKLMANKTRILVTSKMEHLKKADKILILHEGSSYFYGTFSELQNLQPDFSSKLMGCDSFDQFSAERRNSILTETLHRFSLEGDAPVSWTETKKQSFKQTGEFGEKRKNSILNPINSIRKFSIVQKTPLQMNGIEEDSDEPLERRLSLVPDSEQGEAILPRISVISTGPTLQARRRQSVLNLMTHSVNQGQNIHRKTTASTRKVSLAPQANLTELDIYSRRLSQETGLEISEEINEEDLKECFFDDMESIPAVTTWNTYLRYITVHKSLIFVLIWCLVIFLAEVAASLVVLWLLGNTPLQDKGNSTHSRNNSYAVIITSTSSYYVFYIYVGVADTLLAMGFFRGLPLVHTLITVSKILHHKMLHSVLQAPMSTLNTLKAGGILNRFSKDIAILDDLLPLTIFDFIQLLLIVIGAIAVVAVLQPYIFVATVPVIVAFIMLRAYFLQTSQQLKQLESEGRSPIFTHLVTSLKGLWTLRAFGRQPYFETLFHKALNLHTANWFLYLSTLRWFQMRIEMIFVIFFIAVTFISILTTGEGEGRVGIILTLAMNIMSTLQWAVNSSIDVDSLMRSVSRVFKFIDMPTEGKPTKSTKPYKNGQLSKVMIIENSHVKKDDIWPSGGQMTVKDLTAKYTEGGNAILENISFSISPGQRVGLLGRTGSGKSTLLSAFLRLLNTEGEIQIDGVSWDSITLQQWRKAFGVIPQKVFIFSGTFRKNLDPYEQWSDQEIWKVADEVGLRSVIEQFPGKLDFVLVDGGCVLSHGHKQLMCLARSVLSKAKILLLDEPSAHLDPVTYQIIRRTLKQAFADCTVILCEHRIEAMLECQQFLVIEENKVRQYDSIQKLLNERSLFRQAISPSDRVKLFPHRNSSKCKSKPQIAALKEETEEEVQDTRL

Row | SMILES | EC50 [µM]
1 | CC(C)(C)n1cc(-c2ccc(Cl)cc2)c2c(NC(=O)C3CCCO3)ncnc21 (centres unmarked) [compound 373] | 5 to 10
2 | CC(C)(C)C(=O)Nc1ncnc2c1c(Oc1cccc(Cl)c1)nn2C(C)(C)C [compound 377] | > 15
3 | CCC(C)Cn1nc(-c2ccc(Cl)cc2)c2c(N)ncnc21 (centres unmarked) [compound 101] | > 15
4 | CCC(=O)Nc1ncnc2c1c(-c1ccc(Cl)cc1)cn2C(C)(C)C [compound 371] | < 2
5 | CCNC(=O)Nc1ncnc2c1c(-c1ccc(Cl)cc1)nn2C(C)(C)C [compound 239] | > 15
6 | CCC(=O)Nc1ncnc2c1c(Oc1cccc(Cl)c1)nn2C(C)(C)C [compound 339] | 5 to 10
7 | Cc1ccc(-c2nn(-c3ncccn3)c3ncnc(N)c23)cc1 [Compound No. 229, 1-Pyrimidin-2-yl-3-p-tolyl-1H-pyrazolo[3,4-d]pyrimidin-4-ylamine] | > 15
8 | CS(=O)(=O)n1nc(-c2ccc(Cl)cc2)c2c(N)ncnc21 [compound 203, 3-(4-Chloro-phenyl)-1-methanesulfonyl-1H-pyrazolo[3,4-d]pyrimidin-4-ylamine] | > 15
9 | Nc1ncnc2c1c(-c1ccc(Cl)cc1)nn2C(=O)C1CC1 [compound 182] | 5 to 10
10 | CCn1nc(Sc2ccc(C)cc2)c2c(N)ncnc21 [compound 255] | > 15
11 | CN1CCC(C(=O)Nc2ncnc3c2c(-c2ccc(Cl)cc2)cn3C(C)(C)C)C1 (centres unmarked) [compound 375] | < 2
12 | CC(C)C(=O)Nc1ncnc2c1c(Oc1cccc(Cl)c1)nn2C(C)(C)C [compound 369] | 2 to 5
13 | CC(=O)Nc1ncnc2c1c(-c1ccc(Cl)cc1)cn2C(C)(C)C [compound 372] | 2 to 5
14 | CCn1nc(Sc2cccc(F)c2)c2c(N)ncnc21 [compound 219] | 2 to 5

More lines, now with the values ahead:

Row | EC50 [µM] | SMILES
15 | > 15 | Nc1ncnc2c1c(Sc1cccc(Cl)c1)nn2C1CNC1 [compound 415]
16 | > 15 | Nc1ncnc2c1c(Nc1ccccc1)nn2C1CCC1 [Compound No. 253, 1-Cyclobutyl-N^3-phenyl-1H-pyrazolo[3,4-d]pyrimidine-3,4-diamine]
17 | > 15 | CCOC(=O)N1CCC(n2nc(Oc3ccccc3)c3c(N)ncnc32)CC1 [compound 386]
18 | > 15 | CCOC(=O)N1CC(n2nc([S+]([O-])c3ccccc3)c3c(N)ncnc32)C1 (centres unmarked) [compound 405]
19 | > 15 | CCNC(=O)N1CC(n2nc(Sc3ccccc3)c3c(N)ncnc32)C1 [compound 348]
20 | > 15 | CC(C)(C)n1nc(-c2ccc(Cl)cc2)c2c(NC(=O)Nc3ccccc3)ncnc21 [Compound No. 230, 1-[1-tert-Butyl-3-(4-chloro-phenyl)-1H-pyrazolo[3,4-d]pyrimidin-4-yl]-3-phenyl-urea]
21 | > 15 | CC(C)N1CC(n2nc(Sc3cccc(Cl)c3)c3c(N)ncnc32)C1 [compound 360]
22 | > 15 | COC(=O)n1nc(-c2ccc(Cl)cc2)c2c(N)ncnc21 [compound 186, 4-Amino-3-(4-chloro-phenyl)-pyrazolo[3,4-d]pyrimidine-1-carboxylic acid methyl ester]
23 | > 15 | CCn1nc([S+]([O-])c2cccc(C(F)(F)F)c2)c2c(N)ncnc21 (centres unmarked) [compound 340]
24 | > 15 | CC(C)(C)OC(=O)N1CC(n2nc([S+]([O-])c3ccccc3)c3c(N)ncnc32)C1 (centres unmarked) [compound 385]
25 | > 15 | Nc1ncnc2c1c(Sc1ccccc1)nn2C1CNC1 [compound 416]
26 | > 15 | CC(=O)N(C)c1ncnc2c1c(-c1ccc(Cl)cc1)nn2C(C)(C)C [Compound No. 259, N-[1-tert-Butyl-3-(4-chloro-phenyl)-1H-pyrazolo[3,4-d]pyrimidin-4-yl]-N-methyl-acetamide]
27 | 5 to 10 | CC(C)(C)n1nc(-c2ccc3ccccc3c2)c2c(N)ncnc21 [compound 129]
28 | > 15 | CC(C)(C)n1nc(-c2ccc(O)c3ccccc23)c2c(N)ncnc21 [compound 164]
29 | > 15 | Nc1ncnc2c1c(Oc1cccc(Cl)c1)nn2C1CCCC1 [Compound No. 221, 3-(3-Chloro-phenoxy)-1-cyclopentyl-1H-pyrazolo[3,4-d]pyrimidin-4-ylamine]
